Drawing on ChEMBL document CHEMBL1157539, “Thousands of chemical starting points for antimalarial lead identification” (Nature, 2010), this text covers XC50 for 85 molecules.

Structures are written as SMILES.

The subject of this test is Plasmodium falciparum. The test can be described thus: GSK_TCMDC: Inhibition of Plasmodium falciparum 3D7 in whole erythrocytes, using parasite LDH activity as an index of growth. In kind it is functional, organism-based. The note with it: Plasmodium falciparum, 3D7.
As for `Nc1c2ccccc2nc2ccc(Cl)cc12`, the XC50 came to 805 nM. Then `CC(C)N1CCC(N(Cc2ccc(-c3ccc(C(F)(F)F)cc3)cc2)C(=O)Cn2c(CCc3cccc(F)c3F)cc(=O)c3c2CCC3)CC1`, with 617 nM. On to `O=C1COc2cc(Cl)c(CNC3CCN(CCc4ccnc5c(F)cc(F)cc45)CC3)nc2N1`, for which the XC50 was 797 nM. Then `COc1ccc(CNCc2cccc(-c3cccc(-c4nc5cccc(C)c5[nH]4)c3)c2)cc1`, with 134 nM; and `Nc1nc(N)c2c(ccc3c2ccn3Cc2ccc(Cl)cc2)n1`, with 3.2 nM. As for `CC(C)(C)c1ccc(NC(=O)c2ccc(CN3CCCN(Cc4cccc(O)c4)CC3)cc2)cc1`, the figure is 665 nM; as for `CN1CCC(Oc2ccc(CN3CC[C@H](NC(=O)c4ccc(F)c(F)c4)C3)c3ccccc23)C1` (stereo not given in full), 1080 nM; as for `CC(C)CCN1CCCN(Cc2cccc(NC(=O)c3cc4ccccc4s3)c2)CC1`, 917 nM. Then `Oc1ccc(CCCNc2nc(NCc3cccc4ccccc34)nc(NC3CCNCC3)n2)cc1`, with 1130 nM. `CC1c2cccc(O)c2CCN1CCc1ccc(Cl)c(Cl)c1` (stereo not given) had an XC50 of 138 nM. Then `CCCCCCCc1c(C)nc2cc(OC)ccc2c1O`, with 62.8 nM; and `COC(=O)c1ccc(CCC(C)NCC(O)c2cccc(C(F)(F)F)c2)cc1` (stereo not given), with 411 nM; and `COc1ccc(CN(C)CCCOc2ccc(NC(=O)C=Cc3ccc(C(C)(C)C)cc3)cc2)cc1OC`, with 855 nM.

Regarding `COc1ccc(CC(C)NCC(O)c2ccc(Cl)c(Cl)c2)cc1` (stereo not given), the XC50 worked out at 717 nM. Then `CC(C)CN(C)c1ncnc2c1nc(-c1cncc(C#N)c1)n2CCNCc1ccccc1`, with 1360 nM; and `Nc1c2c(nc3ccc(NC(=O)Cc4ccccc4)cc13)CCCC2`, with 755 nM. As for `Cc1c(C(=O)N[C@@H](C)c2ccccc2)c2cc(O)c(Br)cc2n1C1CCCCC1`, the figure is 840 nM; as for `COc1ccc(-c2cccc(NC(=O)c3ccc(Cl)cc3)c2)cc1CNC(C)C`, 695 nM. As for `CC(C)c1ccc(NC(=O)NC2CCN(CCCCCNC(=O)/C=C/c3ccc(Cl)c(Cl)c3)CC2)cc1`, the figure is 674 nM; as for `O=C(Cc1cc(=O)oc2cc(O)ccc12)N1CCC(CN2CCC(c3c[nH]c4ccccc34)CC2)CC1`, 870 nM. `CN(Cc1cccc(C#N)c1)C1CCN(c2cc(NC(=O)c3cccc(F)c3)ccn2)CC1` had an XC50 of 926 nM. Then `COc1ccc(C(=O)NCc2ccc(N)nc2C)cc1Nc1ncc(-c2cccc(N(C)C)c2)cn1`, with 897 nM.

As to `Cc1csc(-c2ncc(OC[C@@H](N)Cc3ccccc3)cc2-c2ccc3[nH]nc(C)c3c2)c1`, the XC50 is 836 nM.

Consider `CN(/N=C/c1ccc(Cl)cc1)c1nc(NCCc2ccc(O)cc2)nc(N2CCNCC2)n1`, for which the XC50 came out at 1350 nM. As for `O=C(/C=C/c1ccc(Cl)c(Cl)c1)NCCCCCN1CCCN(C(=O)Nc2cc(Cl)cc(Cl)c2)CC1`, the figure is 791 nM; as for `COc1ccc(N2CCN(CCCOc3ccc(NC(=O)c4cc(Cl)cc(Cl)c4)cc3)CC2)c(OC)c1`, 897 nM; as for `O=[N+]([O-])c1ccc(N/C(=N\c2ccccc2Br)NCCOc2ccccc2)c(O)c1`, 1050 nM.

`CCNc1cc(C(=O)N[C@@H](Cc2ccccc2)[C@H](O)CNC2CCC(C)(C)C2)cc(N2CCCCS2(=O)=O)c1` (stereo not given in full) displayed an XC50 of 138 nM. As for `O=C(Nc1ccc(C(F)(F)F)cc1)c1cccc(S(=O)(=O)NC2CCN(Cc3ccccc3)C2)c1` (stereo not given), the figure is 1050 nM; as for `c1ccc(COc2ccc(Nc3ncnc4cnc(-c5ccc(CN6CCCCC6)o5)cc34)cc2)cc1`, 967 nM. `NC1CCN(Cc2ccc(-c3ccc(-c4nc5ccccc5[nH]4)s3)cc2)C1` (stereo not given) yielded an XC50 of 743 nM.

On to `CCCCCCCC1CC(CC(=O)Nc2ccnc3ccc(OC)cc23)CN1C(=O)OC(C)(C)C` (stereo not given), for which the XC50 is 714 nM.

`CCCc1nc2c(N3CCCN(C(=O)NC4CCCCC4)CC3)cccc2n1Cc1ccccn1`: the XC50 worked out at 1160 nM.

As for `CCc1cc(=O)[nH]c(-n2nc(C)cc2NC(=O)CC(c2ccccc2)c2ccccc2)n1`, the XC50 came out at 964 nM. As for `CCC(=O)N1CCc2cc(Br)cc(S(=O)(=O)N3CC(C)CC(C)C3)c21` (stereo not given), the figure is 932 nM; as for `FC(F)(F)c1ccc2[nH]c(-c3ccc(-c4ccc(CNCCc5ccncc5)cc4)cc3)nc2c1`, 129 nM. Then `CCC(CC)(Cc1ccccc1)NC(=O)[C@H](Cc1ccc(OC)c(OC)c1)Nc1ccc(C#N)c2ccccc12`, with 866 nM; and `Cn1cc(-c2ccnc3[nH]c(-c4cccc(CNC5CCC(O)CC5)c4)cc23)cn1` (stereo not given), with 903 nM; and `Cc1ccc(CN2CCN(Cc3cccc(NC(=O)c4ccc5ccccc5c4)c3)CC2)cc1C`, with 1220 nM. Then `Cc1ccc(Nc2nc(C)cc(NCc3ccc(-n4ccnc4)cc3)n2)cc1`, with 1010 nM. For `CCOc1cc(C(=O)N[C@@H](Cc2ccccc2)[C@H](O)CNC(C)(C)c2cccc(OC)c2)cc(N2CCCS2(=O)=O)c1`, the XC50 came to 224 nM. As for `O=C(/C=C/c1ccc(Cl)c(Cl)c1)NCCCCCN1CCN(C(=O)Nc2cccc(F)c2)CC1`, the figure is 874 nM; as for `N#CCCN1CCN(Cc2cccc(-c3ccc(-c4nc5ccccc5[nH]4)cc3)c2)CC1`, 1020 nM; as for `O=C(Nc1cccc(-c2ccc(-c3nc4cc(F)ccc4[nH]3)cc2)c1)Nc1ccc(F)c(F)c1F`, 113 nM.

`COc1ccc(CNC2CCN(C)CC2)cc1-c1cccc(S(=O)(=O)NCc2ccccc2)c1` gave an XC50 of 723 nM. Molecule `COc1ccc2ncc(F)c([C@@H](O)CN3CCC(NCc4ccc5c(c4)NCCS5)CC3)c2n1` yielded an XC50 of 504 nM. As for `O=C(Nc1ccc2ccccc2c1)c1ccc(CN2CCC(Cc3ccccc3)CC2)cc1`, the figure is 876 nM.

In turn, `O=C1c2ccccc2C(=O)N1CCOc1c(Br)cc(Br)cc1CNCCCNc1cc(=O)c2ccccc2[nH]1` returned an XC50 of 837 nM.

Turning to `NC1CCN(Cc2cccc(-c3ccc(-c4nc5cc(C(F)(F)F)ccc5[nH]4)cc3)c2)C1` (stereo not given), the XC50 came out at 698 nM. As for `Cc1ccc2[nH]ncc2c1N(CC1CCCCC1)c1ccnc(Nc2ccc(OCC(O)CN3CC=CCC3)cc2)n1` (stereo not given), the XC50 was 622 nM. Then `COc1ccc(S(=O)(=O)N2CCC3(CC2)OCC(=O)NC3c2ccc(Cl)c(Cl)c2)cc1` (stereo not given), with 644 nM; and `CCCn1c(Sc2ccc(C#N)c([N+](=O)[O-])c2)nnc1-c1ccc(N(C)C)cc1`, with 125 nM. Then `CNC(=O)c1ccccc1Nc1nc(Nc2cccc(CS(C)(=O)=O)c2)ncc1C`, with 533 nM. As for `COc1ccc(NC2=C(c3ccccc3)C(=O)c3ccccc32)cn1`, the figure is 705 nM; as for `COc1ccc(CNCC2CCC(CNCCc3ccccc3)CC2)cc1Cl` (stereo not given), 789 nM. With `C=Cc1ccc(-c2c(C)[nH]c(C)c(Br)c2=O)cc1`, the XC50 stood at 556 nM.

For `CC(C)NCc1ccc(-c2cccc(NC(=O)c3ccc(Cl)cc3)c2)cc1`, the XC50 is 289 nM. As for `COc1ccc(C=CC(=O)Nc2ccc(N3CCCC3)cc2)cc1`, the figure is 1280 nM. For `CCCNCc1ccc(-c2ccc(CN(CCOC)C(=O)/C=C/c3ccccc3C)cc2)nc1`, the XC50 was determined as 903 nM. Then `CC(C)CNCc1cccc(-c2cccc(CN(CCCN3CCN(C)CC3)C(=O)Nc3ccccc3)c2)c1`, with 1150 nM.

Molecule `N=C1N=C(N)NC2(CCCCC2)N1OCCCOc1cccc2ccccc12` yielded an XC50 of 3.2 nM. In turn, `COc1cc2nc(N3CCC(CNC(=O)c4ccc(OC(F)(F)F)cc4)CC3)nc(N)c2cc1OC` came in with an XC50 of 224 nM.

In the case of `CCc1ccc(-c2nc3cc(NC(=O)c4cc([N+](=O)[O-])cc([N+](=O)[O-])c4)ccc3o2)cc1`, the XC50 is 932 nM. Then `COc1ccc(Cl)c(CC2c3cc(O)c(Cl)cc3CCN2C)c1` (stereo not given), with 695 nM.

Turning to `CN1CCN(CCCNCc2ccc(Nc3nccc(Nc4ccc(Oc5ccccc5)cc4)n3)cc2)CC1`, the XC50 stood at 635 nM. As for `CC(=O)Oc1c(Br)c(C)nc(C)c1-c1ccc(Oc2ccc(OC(F)(F)F)cc2)cc1`, the figure is 131 nM; as for `O=C(CCCc1ccccc1)Nc1cccc(N2CCC(N3CCN(c4ccccc4O)CC3)CC2)c1`, 786 nM.

Take `O=C(c1ccc(-c2ccccn2)s1)N1CCc2cc3nccc(N4CCN5CCC[C@H]5C4)c3cc21`: the XC50 is 762 nM.

Molecule `CC(CN1CCN(C)CC1)C(=O)Nc1ccc(-c2ccc(-c3nc4cc(C(F)(F)F)ccc4[nH]3)cc2)cc1` (stereo not given) registered an XC50 of 415 nM. As to `Cc1ccc2ncc(Cl)c(CCN3CCC(NCc4ccc5c(n4)NC(=O)CS5)CC3)c2n1`, the XC50 turned out to be 1100 nM. As for `CCOc1cc(C)ccc1C1CCN(CCCCNC(=O)c2ccc(NC(=O)c3cc(Cl)cc(Cl)c3)cc2)CC1`, the figure is 355 nM; as for `Cc1ccc(C(C)C)cc1CON1C(=N)N=C(N)NC1(C)C`, 3.2 nM. As for `Oc1ccc(CCNc2nc(NCCCOc3ccccc3-c3ccc(C(F)(F)F)cc3)nc(N3CCNCC3)n2)cc1`, the figure is 891 nM; as for `CN1CC=C(c2csc3ccc(NC(=O)Nc4ccc(-c5ccncc5)c(Cl)c4)cc23)CC1`, 681 nM; as for `CCCC(C)c1cnc2nc(N)nc(N)c2c1C` (stereo not given), 28.4 nM.

`COc1ccc2nccc([C@@H](O)CN3CCC(NS(=O)(=O)c4cc(Br)c(Br)s4)CC3)c2c1` returned an XC50 of 851 nM.

Consider `COc1cc(F)c2nccc([C@@H](O)CN3CCC(NCc4ccc5c(n4)NC(=O)CS5)CC3)c2c1`, for which the XC50 is 560 nM. In the case of `CC1CN(c2cnn(Cc3cccc(NC(=O)Nc4ccc(F)cc4[N+](=O)[O-])c3)c(=O)c2Cl)CC(C)N1` (stereo not given), the XC50 was 866 nM. Then `COc1ccc(-c2nonc2NC(=O)c2cccc(C)c2)cc1OC`, with 806 nM. Then `CCOc1ccc(-c2nonc2NC(=O)c2ccccc2F)cc1OCC`, with 841 nM; and `CN1CCC(NCc2cccc(-c3ccc(S(=O)(=O)NCc4ccccc4)cc3)c2)CC1`, with 687 nM; and `CC(=O)c1cccc(NC(=O)NC2CCN(c3ccnc(Nc4ccc(F)cc4)n3)C2)c1` (stereo not given), with 650 nM. Consider `O=C(Nc1cccc(CN2CCN(C(=O)c3cccc(F)c3)CC2)c1)c1cccs1`, for which the XC50 came to 372 nM. Consider `COc1cc(-c2nc3c4ccccc4c4ccccc4c3[nH]2)cc(OC)c1OC`, for which the XC50 amounted to 848 nM.

Molecule `Cc1nc2ccc3ccc(CNc4ccc5c(c4)CN([C@H](CCC(=O)O)C(=O)O)C5=O)cc3c2c(=O)[nH]1` gave an XC50 of 860 nM.
